# Results: patent US7601745B2, “Heterocyclic NF-kB inhibitors” (4SC AG, priority 2004, dated 2009)
# Tested on: A549-NF-κB-SEAP reporter cells
# Assay: Inhibition of NF-κB-induced inflammation ([…] NINA Instant Assay, SEAP reporter)
# Format: cell-based
# Conditions: NF-κB inflammation assay
# Source text: For the determination of anti-inflammatory activity of the compounds the […]® NINA Instant Assay from Cell Culture Service GmBH was used. This assay is based on recombinant A549-NF-κB-SEAP reporter cells preseeded in 96-well flat bottom plates. As the transfected reportergen for SEAP (secreted embryonic alkaline phosphatase) is under transcriptional control of a NF-κB-responsive element, the expression of this reporter is activated upon stimulation with TNF-α. SEAP secretion into the culture supernatant can be detected by the chemiluminescent substrate CSPD®. Test compounds that inhibit the NF-κB activation show reduced SEAP activity and reduced luminescent readout.
# Following 18 h of reactivation at 37° C., 5% CO2 and 90% relative humidity, the cells were incubated with 0.01 up to 100 μM of test compound for 4.5 h before stimulation with 2 ng/ml TNF-α. After stimulation with TNF-α for 22 h endogenous phosphatases were inactivated and CSPD® substrate was supplied for 40 min. SEAP activity then was quantified by measuring luminescence as relative light units (RLU) using a Tecan Ultra reader. Each data point was recorded in quadruplicates and EC50 values were calculated via fitting function and the Microsoft Excel Solver.
row,SMILES,Biological activity (inhibition in the NF-κB inflammation assay)
1,Cc1cc2nc(NC(=O)c3csc(NC(=O)c4ccccc4OC(F)(F)F)n3)[nH]c2cc1C [compound 25],+++ (“+++” stands for 90-100% inhibition)
2,N=C(NC(=O)c1coc(NC(=O)c2ccc(C(F)(F)F)c(F)c2)n1)Nc1nc2ccccc2[nH]1 [compound 27],+++ (“+++” stands for 90-100% inhibition)
3,N=C(NC(=O)c1csc(N2CCN(Cc3ccccc3)CC2)n1)Nc1nc2ccccc2[nH]1 [compound 30],+++ (“+++” stands for 90-100% inhibition)
4,O=C(Nc1nc2ccccc2[nH]1)c1csc(NC(=O)c2ccccc2OC(F)(F)F)n1 [compound 31],+++ (“+++” stands for 90-100% inhibition)
5,N=C(NC(=O)c1csc(C2CCN(C(=O)c3ccccc3OC(F)(F)F)CC2)n1)Nc1nc2ccccc2[nH]1 [compound 36],+++ (“+++” stands for 90-100% inhibition)
6,Cc1cc2nc(NC(=O)c3coc(NC(=O)c4ccccc4OC(F)(F)F)n3)[nH]c2cc1C [compound 40],+++ (“+++” stands for 90-100% inhibition)
7,CN1CCN(c2ccc3nc(NC(=O)c4csc(NC(=O)c5ccccc5OC(F)(F)F)n4)sc3c2)CC1 [compound 42],+++ (“+++” stands for 90-100% inhibition)
8,O=C(Nc1nc2ccc([N+](=O)[O-])cc2[nH]1)c1csc(NC(=O)c2ccccc2OC(F)(F)F)n1 [compound 43],+++ (“+++” stands for 90-100% inhibition)
9,N=C(NC(=O)c1csc(NC(=O)c2ccccc2C2CCCCC2)n1)Nc1nc2ccccc2[nH]1 [compound 45],+++ (“+++” stands for 90-100% inhibition)
10,Cn1c(NC(=O)c2csc(NC(=O)c3ccccc3OC(F)(F)F)n2)nc2ccccc21 [compound 46],+++ (“+++” stands for 90-100% inhibition)
11,CCCS(=O)(=O)c1ccc2[nH]c(NC(=O)c3csc(NC(=O)c4ccccc4OC(F)(F)F)n3)nc2c1 [compound 47],+++ (“+++” stands for 90-100% inhibition)
12,N=C(NC(=O)c1csc(N2CCOCC2)n1)Nc1nc2ccccc2[nH]1 [compound 49],+++ (“+++” stands for 90-100% inhibition)
13,N=C(NC(=O)c1csc(NC(=O)c2ccc(C(F)(F)F)cc2)n1)Nc1nc2ccccc2[nH]1 [compound 51],+++ (“+++” stands for 90-100% inhibition)
14,CCCS(=O)(=O)c1ccc2[nH]c(NC(=O)c3csc(C4CCN(C(=O)c5ccccc5OC(F)(F)F)CC4)n3)nc2c1 [compound 52],+++ (“+++” stands for 90-100% inhibition)
15,NC(=Nc1nc2ccccc2[nH]1)NC(=O)c1csc(NC(=O)c2ccc(C(F)(F)F)cc2F)n1 [compound 53],+++ (“+++” stands for 90-100% inhibition)
16,NC(=Nc1nc2ccccc2[nH]1)NC(=O)c1csc(NC(=O)Nc2ccccc2OC(F)(F)F)n1 [compound 54],+++ (“+++” stands for 90-100% inhibition)
17,NC(=Nc1nc2ccccc2[nH]1)NC(=O)c1csc(NC(=O)c2ccc(C(F)(F)F)c(F)c2)n1 [compound 56],+++ (“+++” stands for 90-100% inhibition)
18,NC(=Nc1nc2ccccc2[nH]1)NC(=O)c1csc(NC(=O)c2c(F)cccc2F)n1 [compound 57],+++ (“+++” stands for 90-100% inhibition)

# Same assay, conditions: compounds of formula (I); TNF-α stimulated reporter cells; test concentration not given
row,SMILES,"Biological activity (NF-κB inflammation assay, inhibition)"
1,COc1ccc(OC)c(N2CCC(c3nc(C(=O)N4CCN(c5cccc(C(F)(F)F)c5)CC4)cs3)CC2)c1 [compound 29],++ (“++” means 80-90%)
2,O=C(c1csc(C2CCN(CCC(c3ccccc3)c3ccccc3)CC2)n1)N1CCN(c2cccc(C(F)(F)F)c2)CC1 [compound 35],+++ (“+++” stands for 90-100% inhibition)
3,N#Cc1ccc(C(=O)N2CCC(c3nc(C(=O)N4CCN(c5cccc(C(F)(F)F)c5)CC4)cs3)CC2)cc1 [compound 70],++ (“++” means 80-90%)

# Same assay, conditions: compounds of formula (II); TNF-α stimulated reporter cells; test concentration not given
row,SMILES,"Biological activity (NF-κB inflammation assay, inhibition)"
1,O=C(Nc1nc(C(=O)N2CCN(c3cccc(C(F)(F)F)c3)CC2)cs1)c1ccccc1OC(F)(F)F [compound 32],+++ (“+++” stands for 90-100% inhibition)
2,O=C(CCC1CCCC1)Nc1nc(C(=O)N2CCN(c3cccc(C(F)(F)F)c3)CC2)cs1 [compound 33],+++ (“+++” stands for 90-100% inhibition)
3,O=C(Nc1nc(C(=O)N2CCN(c3cccc(C(F)(F)F)c3)CC2)cs1)c1ccc(C(F)(F)F)c(F)c1 [compound 34],+++ (“+++” stands for 90-100% inhibition)
4,O=C(CCC1CCCC1)N1CCN(c2nc(C(=O)N3CCN(c4cccc(C(F)(F)F)c4)CC3)cs2)CC1 [compound 37],+++ (“+++” stands for 90-100% inhibition)
5,COc1ccccc1C(=O)N1CCN(c2nc(C(=O)N3CCN(c4cccc(C(F)(F)F)c4)CC3)cs2)CC1 [compound 38],+++ (“+++” stands for 90-100% inhibition)
6,O=C(c1csc(N2CCN(C(=O)c3ccccc3OC(F)(F)F)CC2)n1)N1CCN(c2cccc(C(F)(F)F)c2)CC1 [compound 39],+++ (“+++” stands for 90-100% inhibition)
7,O=C(Nc1nc(C(=O)N2CCN(c3ccc(Cl)c(Cl)c3)CC2)cs1)c1ccccc1OC(F)(F)F [compound 41],+++ (“+++” stands for 90-100% inhibition)
8,COc1ccccc1N1CCN(C(=O)c2csc(NC(=O)c3ccccc3OC(F)(F)F)n2)CC1 [compound 44],++ (“++” means 80-90%)
9,O=C(Nc1nc(C(=O)N2CCN(c3cccc(C(F)(F)F)c3)CC2)cs1)Nc1ccccc1OC(F)(F)F [compound 55],+++ (“+++” stands for 90-100% inhibition)
10,O=C(Nc1nc(C(=O)N2CCN(C(c3ccccc3)c3ccccc3)CC2)cs1)c1ccccc1OC(F)(F)F [compound 58],++ (“++” means 80-90%)
11,O=C(c1cc(C(F)(F)F)cc(C(F)(F)F)c1)N1CCN(c2nc(C(=O)N3CCN(c4cccc(C(F)(F)F)c4)CC3)cs2)CC1 [compound 59],+ (“+” stands for 50-80% inhibition)
12,O=C(c1ccc(C(F)(F)F)c(F)c1)N1CCN(c2nc(C(=O)N3CCN(c4cccc(C(F)(F)F)c4)CC3)cs2)CC1 [compound 60],+++ (“+++” stands for 90-100% inhibition)
13,N#Cc1ccc(C(=O)N2CCN(c3nc(C(=O)N4CCN(c5cccc(C(F)(F)F)c5)CC4)cs3)CC2)cc1 [compound 61],+++ (“+++” stands for 90-100% inhibition)
14,N#Cc1ccc(CN2CCN(c3nc(C(=O)N4CCN(c5cccc(C(F)(F)F)c5)CC4)cs3)CC2)cc1 [compound 62],+++ (“+++” stands for 90-100% inhibition)
15,CC(C)(C)OC(=O)N1CCN(c2nc(C(=O)N3CCN(c4cccc(C(F)(F)F)c4)CC3)cs2)CC1 [compound 63],++ (“++” means 80-90%)
16,O=C(c1csc(N2CCNCC2)n1)N1CCN(c2cccc(C(F)(F)F)c2)CC1 [compound 64],+ (“+” stands for 50-80% inhibition)
17,COc1ccccc1N1CCN(c2nc(C(=O)N3CCN(c4cccc(C(F)(F)F)c4)CC3)cs2)CC1 [compound 65],++ (“++” means 80-90%)
18,CC(=O)c1ccc(N2CCN(c3nc(C(=O)N4CCN(c5cccc(C(F)(F)F)c5)CC4)cs3)CC2)cc1 [compound 66],++ (“++” means 80-90%)
19,O=C(c1csc(N2CCN(c3cccc(C(F)(F)F)c3)CC2)n1)N1CCN(c2cccc(C(F)(F)F)c2)CC1 [compound 67],+ (“+” stands for 50-80% inhibition)
20,O=C(c1csc(N2CCN(c3ccccc3)CC2)n1)N1CCN(c2cccc(C(F)(F)F)c2)CC1 [compound 68],+ (“+” stands for 50-80% inhibition)
21,O=C(c1csc(N2CCN(c3ccc(F)cc3)CC2)n1)N1CCN(c2cccc(C(F)(F)F)c2)CC1 [compound 69],++ (“++” means 80-90%)
22,O=C(c1csc(N2CCN(Cc3ccccc3)CC2)n1)N1CCN(C(c2ccccc2)c2ccccc2)CC1 [compound 71],+++ (“+++” stands for 90-100% inhibition)
23,O=C(c1csc(N2CCN(Cc3ccccc3)CC2)n1)N1CCN(c2cccc(C(F)(F)F)c2)CC1 [compound 72],+++ (“+++” stands for 90-100% inhibition)

# Same assay, conditions: compounds of formula (Ia); TNF-α stimulated reporter cells; test concentration not given
row,SMILES,"Biological activity (NF-κB inflammation assay, inhibition)"
1,O=C(Nc1cc(F)cc2c1OCCO2)N1CCC(c2nc(C(=O)N3CCN(c4cccc(C(F)(F)F)c4)CC3)cs2)CC1 [compound 74],++ (“++” means 80-90%)
2,O=C(Nc1ccc2c(c1)OCCO2)N1CCC(c2nc(C(=O)N3CCN(c4cccc(C(F)(F)F)c4)CC3)cs2)CC1 [compound 75],++ (“++” means 80-90%)
3,Cc1cc(NC(=O)N2CCC(c3nc(C(=O)N4CCN(c5cccc(C(F)(F)F)c5)CC4)cs3)CC2)c(C(F)(F)F)o1 [compound 76],++ (“++” means 80-90%)
